In patent publication US20220402917A1, “COMPOUND AS SMALL MOLECULE INHIBITOR PD-1/PD-L1 AND APPLICATION THEREOF” (MEDSHINE DISCOVERY INC., priority 2019, published 2022):
pIC50: −log10 of the molar value.

Experiments:
[1] = molecular target: T1, PD-L1 in MDA-MR-231 cells (Homo sapiens, UniProt Q9NZQ7); assay: Effect on expression level of PD-L1 in MDA-MR-231 cells (FACS); type: cell-based; conditions: 24 hours incubation, FACS detection of cell surface PD-L1
T1 construct: endogenous in cells; host or cells: MDA-MB-231
Experimental: Experimental Example 2: Using MDA-MR-231 Cells to Detect the Effect of Compounds on the Expression Level of PD-L1
The use of a triple-negative breast cancer cell line (MDA-MB-231) is an indirect method to assess PD-L1 endocytosis. PD-L1 molecules on the cell surface can be degraded by lysosomal and proteasome pathways, and small molecule inhibitors are added to induce PD-L1 endocytosis. After co-incubating small molecules with MDA-MB-231 cells for 24 hours, flow cytometry (Fluorescence-activated Cell Sorting, FACS) is used to detect the content of PD-L1 on the cell surface, which can indirectly reflect the effect of small molecule-induced PD-L1 endocytosis. Flow cytometry (FACS) is used to detect the effect of the compounds of the present disclosure on the expression level of PD-L1 in MDA-MR-231 cells.
Phosphate buffer (DPBS), 1640 medium, penicillin-streptomycin, fetal bovine serum, non-essential amino acids, 2-hydroxy-1-ethanethiol (2-ME), human interferon γ, LIVE/DEAD staining solution, staining buffer, fixation buffer, 0.25% trypsin, EDTA, anti-human PD-L1, anti-human PD-L1 isotype.
1640 complete medium preparation: 50 mL of fetal bovine serum, 5 mL of non-essential amino acids, 5 mL of penicillin-streptomycin and 0.5 mL of 2-hydroxy-1-ethanethiol were added to 439.5 mL of 1640 medium, and evenly mixed.
10 mM EDTA preparation: 1 mL of 0.5M EDTA was added to 49 mL of DPBS, and evenly mixed.
1) MDA-MB-231 cell counting and plating: The culture flask was taken out, the medium was removed and the culture flask was rinsed once with DPBS. After the culture flask was rinsed, 3 mL of 0.25% trypsin was added to the culture flask and the culture flask was placed in a 37° C. incubator for 1.5 min. The culture flask was taken out, 9 mL of 1640 complete medium was added to stop the reaction, the cells was transferred to a 50 mL centrifuge tube, and centrifuged at 1000 rpm for 5 min at 37° C. An appropriate volume of medium was added to re-suspend the cells according to the number of cells, and the number of cells was counted with a cell counter. The cell concentration was adjusted to 5×10^5 cells/mL with medium. Planking: A volume of 200 μL of cell suspension was added to each well of a 96-well plate, ensure that the number of cells in each well was 1×10^5. The cells were incubated overnight in an incubator. 2) Drug incubation: 100-fold dilution of compounds were prepared, and the drug was subjected to a 5-fold gradient dilution. 2 μL of each 100-fold dilution of compounds were added to each well. The cells were incubated in an incubator at 37° C. for 24 hours. 3) PD-L1 cell staining and FACS detection: the culture plate was taken out and the supernatant medium was discarded. The cells were washed once with 200 μL 1×PBS. 100 μL of EDTA (final concentration of 10 mM) was added to the cell suspension, and the cell suspension was treated at 37° C. for 10 min. Then after the cell suspension was centrifuged at 1500 rpm for 5 min, the cell suspension was washed once with 200 μL of staining solution. Staining: anti-human PD-L1 (2 μL per well) and LIVE/DEAD staining solution (1:1000) were diluted in staining solution, 50 μL of the staining solution was added to each well, and the staining was conducted at 4° C. for 30 min. Then the solution was washed twice with 200 μL of staining solution. Fixation: 100 μL of fixing solution was added to each well, the fixation was conducted at 4° C. for 15 min. The solution was then washed twice with 200 μL of staining solution, and 150 μL of solution was added to re-suspend the cells, followed by FACS detection.
Table 2 provides the effects of the compounds of the examples of the present disclosure on the expression level of PD-L1 in MDA-MR-231 cells.

PD1/PD-L1 = PD1/PD-L1 (Homo sapiens, UniProt Q9NZQ7); assay: NFAT activity test (TCR Activitor/PD-L1 CHO cells with PD-1/NFAT Reporter-Jurkat cells); type: cell-based; set-up: host or cells: TCR Activitor/PD-L1 CHO cells; PD-1/NFAT Reporter-Jurkat cells; conditions: TCR Activitor/PD-L1 CHO cells + PD-1/NFAT Reporter-Jurkat cells, 5 hours, luciferase; for pIC50: read-out: IC50, inhibitory activity on PD1/PD-L1 binding (NFAT activity test)
Excerpt: Experimental Example 3: NFAT Activity Test
The engineered T cell expresses PD-1 molecules and T cell receptor (TCR) on the surface, which can activate the NFAT signaling pathway of T cells after co-culturing with engineered antigen presenting cells (APCs). Expression of PD-L1 molecules on APCs can effectively attenuate the NFAT signaling pathway in T cells. PD-L1 inhibitors can be used effectively block the PD-1/PD-L1 regulatory mechanism, thereby reversing the weakened NFAT signaling pathway. After being pretreated with APC, the small molecule is co-cultured with T cells, then the expression of luciferase was detected to indirectly reflect the activation of the NFAT pathway in T cells.
The PD1/PD-L1 NFAT detection kit was purchased from BPS Biosciences. Birght-Glo reagent was purchased from Promega. Nivo multi-label analyzer (PerkinElmer).
The TCR Activitor/PD-L1 CHO cells with a growth confluence of 80% were plated into the plate at 35,000 cells per well and placed in a 37° C. cell culture incubator overnight; the compounds to be tested were diluted 5-fold to the 8th concentration, from 20 μM to 0.25 nM, and the DMSO concentration was 2%, a double-well experiment was set up. The TCR Activitor/PD-L1 CHO cell supernatant was discarded, 50 μl of compound working solution was added to each well, incubated at 37° C. for 30 minutes; after the incubation was completed, 50 μL of PD-1/NFAT Reporter-Jurkat cell suspension with a concentration of 4*10^5 cells/mL was added to each well, incubated at 37° C. for 5 hours. After the incubation was completed, 100 μL Bright-Glo was added to each well, and after mixing, the chemiluminescence signal was detected by a Nivo multi-label analyzer.
Using the equation (sample−Min)/(Max−Min)×100% to convert the raw data into inhibition rate, and the IC50 value can be obtained by curve fitting with four parameters (obtained from log(inhibitor) vs. response—Variable slope mode in GraphPad Prism). Table 3 provides the inhibitory activity of the compounds of the examples of the present disclosure on PD1/PD-L1 binding.

T1 sequence (Q9NZQ7 19-290): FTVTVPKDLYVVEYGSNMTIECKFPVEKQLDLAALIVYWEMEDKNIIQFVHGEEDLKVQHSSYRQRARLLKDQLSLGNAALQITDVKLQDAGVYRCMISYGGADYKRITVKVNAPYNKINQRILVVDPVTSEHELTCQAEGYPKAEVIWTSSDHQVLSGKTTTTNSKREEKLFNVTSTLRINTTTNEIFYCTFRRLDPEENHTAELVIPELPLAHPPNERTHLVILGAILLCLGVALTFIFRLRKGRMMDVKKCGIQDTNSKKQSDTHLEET
Chain of PD1/PD-L1 (Q9NZQ7 19-290): as above

Row | Structure (SMILES) | pIC50 [1] | Maximum effect (induction fold) (PD1/PD-L1) | pIC50 (PD1/PD-L1)
1 | Cc1cc(C(=O)Nc2cccc(-c3cccc(NC(=O)c4ccc(CNCCO)cn4)c3Cl)c2Cl)nc2c1CCN(CCO)C2 [Compound 5] | 7.49 | 3.68 induction fold | 7.79
2 | Cc1cc(C(=O)Nc2cccc(-c3cccc(NC(=O)c4ccc(CNCCO)cn4)c3C)c2Cl)nc2c1CCN(CCO)C2 [Compound 9] | 7.39 | 3.77 induction fold | 7.49
3 | Cc1cc(C(=O)Nc2cccc(-c3cccc(NC(=O)c4ccc(CNCCO)cn4)c3C)c2Cl)nc2c1CCN(C1CCNCC1)C2 [Compound 14] | 7.01 |  | 
4 | COc1nc(-c2cccc(-c3cccc(NC(=O)c4cc(C)c5c(n4)CN(CC(=O)O)CC5)c3Cl)c2C)cnc1CN1CC(O)C1 [Compound 22] | 7.10 | 3.79 induction fold | 7.23
5 | COc1nc(-c2cccc(-c3cccc(NC(=O)c4cc(C)c5c(n4)CN(CCO)CC5)c3Cl)c2Cl)cnc1CNCCO [Compound 31] | 8.07 | 4.12 induction fold | 7.65
6 | COc1nc(-c2cccc(-c3cccc(NC(=O)c4cc(C)c5c(n4)CN(CCO)CC5)c3Cl)c2Cl)ccc1CN1CC(O)C1 [Compound 37] | 7.55 |  | 
7 | COc1cc(C(=O)Nc2cccc(-c3cccc(-c4cnc(CN5CC6(CC(O)C6)C5)c(OC)n4)c3Cl)c2Cl)nc2c1CCN(CCO)C2 [Compound 53] |  | 3.81 induction fold | 7.86
8 | COc1cc(C(=O)Nc2cccc(-c3cccc(-c4cnc(CNCCO)c(OC)n4)c3Cl)c2Cl)nc2c1CCN(CCO)C2 [Compound 54] |  | 3.91 induction fold | 7.41
9 | COc1cc(C(=O)Nc2cccc(-c3cccc(-c4cnc(CN5CC(CO)C5)c(OC)n4)c3Cl)c2Cl)nc2c1CCN(CCO)C2 [Compound 55] |  | 4.56 induction fold | 7.60
10 | COc1cc(C(=O)Nc2cccc(-c3cccc(-c4cnc(CN5CCC(CO)C5)c(OC)n4)c3Cl)c2Cl)nc2c1CCN(CCO)C2 (stereo not drawn) [Compound 56] |  | 2.75 induction fold | 8.00
11 | COc1nc(-c2cccc(-c3cccc(NC(=O)c4cc(C#N)c5c(n4)CN(CCO)CC5)c3Cl)c2Cl)cnc1CN1CC2(CC(O)C2)C1 [Compound 57] |  | 4.42 induction fold | 7.39
12 | COc1nc(-c2cccc(-c3cccc(NC(=O)c4cc(C#N)c5c(n4)CN(CCO)CC5)c3Cl)c2Cl)cnc1CN1CC(C)(O)C1 [Compound 58] |  | 5.01 induction fold | 6.99
13 | COc1nc(-c2cccc(-c3cccc(NC(=O)c4cc(C#N)c5c(n4)CN(CCO)CC5)c3Cl)c2Cl)cnc1CNCCO [Compound 59] |  | 5.35 induction fold | 6.78
14 | COc1nc(-c2cccc(-c3cccc(NC(=O)c4cc(C#N)c5c(n4)CN(CCO)CC5)c3Cl)c2Cl)cnc1CN1CC(CO)C1 [Compound 60] |  | 4.95 induction fold | 7.26
15 | COc1nc(-c2cccc(-c3cccc(NC(=O)c4cc(C#N)c5c(n4)CN(CCO)CC5)c3Cl)c2Cl)cnc1CN1CCC(CO)C1 (stereo not drawn) [Compound 61] |  | 4.99 induction fold | 7.27
16 | COc1nc(-c2cccc(-c3cccc(NC(=O)c4cc(OC(F)F)c5c(n4)CN(CCO)CC5)c3Cl)c2Cl)cnc1CN1CC2(CC(O)C2)C1 [Compound 62] |  | 4.37 induction fold | 7.87
17 | COc1nc(-c2cccc(-c3cccc(NC(=O)c4cc(OC(F)F)c5c(n4)CN(CCO)CC5)c3Cl)c2Cl)cnc1CN1CC(C)(O)C1 [Compound 63] |  | 6.40 induction fold | 6.85
18 | COc1nc(-c2cccc(-c3cccc(NC(=O)c4cc(OC(F)F)c5c(n4)CN(CCO)CC5)c3Cl)c2Cl)cnc1CN1CCC(CO)C1 (stereo not drawn) [Compound 64] |  | 3.98 induction fold | 7.78

The next lines start with the values.

Row | pIC50 [1] | Maximum effect (induction fold) (PD1/PD-L1) | pIC50 (PD1/PD-L1) | Structure (SMILES)
19 | 8.00 | 3.39 induction fold | 7.53 | COc1nc(-c2cccc(-c3cccc(NC(=O)c4cc(C)c5c(n4)CN(CCO)CC5)c3Cl)c2Cl)cnc1CN1CC(C)(O)C1 [Compound 25]
20 | 7.84 | 3.48 induction fold | 7.54 | COc1nc(-c2cccc(-c3cccc(NC(=O)c4cc(C)c5c(n4)CN(C(C)CO)CC5)c3Cl)c2Cl)cnc1CN1CC(O)C1 (stereo not drawn) [Compound 27]
21 |  | 3.63 induction fold | 7.46 | COc1nc(-c2cccc(-c3cccc(NC(=O)c4cc(C)c5c(n4)CN(CC(C)(C)O)CC5)c3Cl)c2Cl)cnc1CN1CC(O)C1 [Compound 28]
22 |  | 3.52 induction fold | 7.28 | COc1nc(-c2cccc(-c3cccc(NC(=O)c4cc(C)c5c(n4)CN(CC4(CO)CC4)CC5)c3Cl)c2Cl)cnc1CN1CC(O)C1 [Compound 29]
23 | 7.98 | 4.80 induction fold | 7.58 | COc1nc(-c2cccc(-c3cccc(NC(=O)c4cc(C)c5c(n4)CN(CC(O)CO)CC5)c3Cl)c2Cl)cnc1CN1CC(O)C1 (stereo not drawn) [Compound 30]
24 |  | 5.16 induction fold | 6.62 | COc1nc(-c2cccc(-c3cccc(NC(=O)c4cc(C)c5c(n4)CCN(CCO)C5)c3Cl)c2Cl)cnc1CN1CC(O)C1 [Compound 43]
25 |  | 5.15 induction fold | 6.69 | COc1nc(-c2cccc(-c3cccc(NC(=O)c4cc(C)c5c(n4)CN(CC(C)O)CC5)c3Cl)c2Cl)cnc1CN1CC(O)C1 (stereo not drawn) [Compound 44]
26 |  | 4.74 induction fold | 7.29 | COc1nc(-c2cccc(-c3cccc(NC(=O)c4cc(OCC#N)c5c(n4)CN(CCO)CC5)c3Cl)c2Cl)cnc1CN1CC(O)C1 [Compound 52]
